Source: patent US9062071B2, “Substituted piperidines as HDM2 inhibitors” (Merck Sharp & Dohme Corp, priority 2011, dated 2015)

Target: HDM2 protein (Homo sapiens, UniProt Q00987)
Experiment: fluorescence polarization screening assay (FP IC50)
Type: binding
Conditions: class symbols
Description: The compounds were evaluated to determine activity at the HDM2 protein by known methods such as the fluorescence polarization screening assay that measures the inhibitory concentration that achieves 50% of maximal activity (FP IC50) and the dissociation constant for inhibitor binding (FP Ki). [Zhang et al., J. Analytical Biochemistry 331: 138-146 (2004)].

HDM2 protein, sequence (Q00987 whole entry): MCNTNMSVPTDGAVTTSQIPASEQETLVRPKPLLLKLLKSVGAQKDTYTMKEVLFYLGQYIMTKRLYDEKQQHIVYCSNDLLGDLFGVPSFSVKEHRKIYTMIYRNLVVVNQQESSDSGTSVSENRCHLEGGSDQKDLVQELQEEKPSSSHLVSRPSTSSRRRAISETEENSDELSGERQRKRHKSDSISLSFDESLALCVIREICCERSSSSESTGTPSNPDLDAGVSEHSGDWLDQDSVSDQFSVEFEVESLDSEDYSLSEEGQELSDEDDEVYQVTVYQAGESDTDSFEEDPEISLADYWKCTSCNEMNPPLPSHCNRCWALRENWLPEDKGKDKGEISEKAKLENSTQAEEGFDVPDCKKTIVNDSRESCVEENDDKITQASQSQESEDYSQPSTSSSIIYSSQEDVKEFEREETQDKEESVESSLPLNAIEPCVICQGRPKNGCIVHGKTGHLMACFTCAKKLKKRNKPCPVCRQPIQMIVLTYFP

Compound	IC50 [nM]
CCC[C@H]1N(C(=O)c2ncccc2C(F)(F)F)CCC[C@@]1(Oc1csc(C(F)(F)F)c1)C(=O)N1Cc2ccc(F)cc2C[C@H]1CN1CCC(O)CC1 [Compound A162, 1-{[(3S)-6-fluoro-2-{[(2R,3S)-2-propyl-1-{[3-(trifluoromethyl)pyridin-2-yl]carbonyl}-3-{[5-(trifluoromethyl)thiophen-3-yl]oxy}piperidin-3-yl]carbonyl}-1,2,3,4-tetrahydroisoquinolin-3-yl]methyl}piperidin-4-ol]	101 to 20000
CCC[C@H]1N(C(=O)c2ncccc2C(F)(F)F)CCC[C@@]1(Oc1csc(C(F)(F)F)c1)C(=O)N1Cc2ccc(Cl)cc2C[C@@H]1C[C@H](O)C(=O)O [Compound A164, (2S)-3-[(3R)-6-chloro-2-{[(2R,3S)-2-propyl-1-{[3-(trifluoromethyl)pyridin-2-yl]carbonyl}-3-{[5-(trifluoromethyl)thiophen-3-yl]oxy}piperidin-3-yl]carbonyl}-1,2,3,4-tetrahydroisoquinolin-3-yl]-2-hydroxypropanoic acid]	1 to 100
CCC[C@H]1N(C(=O)c2ncccc2C(F)(F)F)CCC[C@@]1(Oc1csc(C(F)(F)F)c1)C(=O)N1Cc2ccc(F)cc2C[C@H]1CCC(C)O (stereo partly drawn) [Compound A167, 4-[(3R)-6-fluoro-2-{[(2R,3S)-2-propyl-1-{[3-(trifluoromethyl)pyridin-2-yl]carbonyl}-3-{[5-(trifluoromethyl)thiophen-3-yl]oxy}piperidin-3-yl]carbonyl}-1,2,3,4-tetrahydroisoquinolin-3-yl]butan-2-ol]	1 to 100
CCC[C@H]1N(C(=O)c2ncccc2C(F)(F)F)CCC[C@@]1(Oc1csc(C(F)(F)F)c1)C(=O)N1Cc2ccc(Cl)cc2C[C@@H]1C(=O)N1CCC(O)CC1 [Compound A168, 1-{[(3R)-6-chloro-2-{[(2R,3S)-2-propyl-1-{[3-(trifluoromethyl)pyridin-2-yl]carbonyl}-3-{[5-(trifluoromethyl)thiophen-3-yl]oxy}piperidin-3-yl]carbonyl}-1,2,3,4-tetrahydroisoquinolin-3-yl]carbonyl}piperidin-4-ol]	1 to 100
CCC[C@H]1N(C(=O)c2ncccc2C(F)(F)F)CCC[C@@]1(Oc1csc(C(F)(F)F)c1)C(=O)N1Cc2ccc(Cl)cc2C[C@@H]1C(=O)N1CCC[C@@H](O)C1 [Compound A170, (3R)-1-{[(3R)-6-chloro-2-{[(2R,3S)-2-propyl-1-{[3-(trifluoromethyl)pyridin-2-yl]carbonyl}-3-{[5-(trifluoromethyl)thiophen-3-yl]oxy}piperidin-3-yl]carbonyl}-1,2,3,4-tetrahydroisoquinolin-3-yl]carbonyl}piperidin-3-ol]	1 to 100
CCC[C@H]1N(C(=O)c2ncccc2C(F)(F)F)CCC[C@@]1(Oc1csc(C(F)(F)F)c1)C(=O)N1Cc2sccc2CC1C(=O)O (stereo partly drawn) [Compound A173, 6-{[(2R,3S)-2-propyl-1-{[3-(trifluoromethyl)pyridin-2-yl]carbonyl}-3-{[5-(trifluoromethyl)thiophen-3-yl]oxy}piperidin-3-yl]carbonyl}-4,5,6,7-tetrahydrothieno[2,3-c]pyridine-5-carboxylic acid]	101 to 20000
CCC[C@H]1N(C(=O)c2ncccc2C(F)(F)F)CCC[C@@]1(Oc1csc(C(F)(F)F)c1)C(=O)N1CCc2cc(Cl)ccc2C1CC(C)C (stereo partly drawn) [Compound A176, 6-chloro-1-(2-methylpropyl)-2-{[(2R,3S)-2-propyl-1-{[3-(trifluoromethyl)pyridin-2-yl]carbonyl}-3-{[5-(trifluoromethyl)thiophen-3-yl]oxy}piperidin-3-yl]carbonyl}-1,2,3,4-tetrahydroisoquinoline]	101 to 20000
CCC[C@H]1N(C(=O)c2ncccc2C(F)(F)F)CCC[C@@]1(Oc1csc(C(F)(F)F)c1)C(=O)N1CCc2cc(Cl)ccc2C1CC(C(=O)O)C(C)C (stereo partly drawn) [Compound A180, 2-[(6-chloro-2-{[(2R,3S)-2-propyl-1-{[3-(trifluoromethyl)pyridin-2-yl]carbonyl}-3-{[5-(trifluoromethyl)thiophen-3-yl]oxy}piperidin-3-yl]carbonyl}-1,2,3,4-tetrahydroisoquinolin-1-yl)methyl]-3-methylbutanoic acid]	101 to 20000

More lines, now with the values ahead:

IC50 [nM]	Compound
1 to 100	CCC[C@H]1N(C(=O)c2ncccc2C(F)(F)F)CCC[C@@]1(Oc1csc(C(F)(F)F)c1)C(=O)N1Cc2ccc(F)cc2C[C@@H]1CCN(C)C(=O)[C@@H](C)O [Compound A163, (2R)-N-{2-[(3R)-6-fluoro-2-{[(2R,3S)-2-propyl-1-{[3-(trifluoromethyl)pyridin-2-yl]carbonyl}-3-{[5-(trifluoromethyl)thiophen-3-yl]oxy}piperidin-3-yl]carbonyl}-1,2,3,4-tetrahydroisoquinolin-3-yl]ethyl}-2-hydroxy-N-methylpropanamide]
1 to 100	CCC[C@H]1N(C(=O)c2ncccc2C(F)(F)F)CCC[C@@]1(Oc1csc(C(F)(F)F)c1)C(=O)N1Cc2ccc(Cl)cc2C[C@@H]1C[C@H](CC)C(=O)O [Compound A165, (2S)-2-{[(3S)-6-chloro-2-{[(2R,3S)-2-propyl-1-{[3-(trifluoromethyl)pyridin-2-yl]carbonyl}-3-{[5-(trifluoromethyl)thiophen-3-yl]oxy}piperidin-3-yl]carbonyl}-1,2,3,4-tetrahydroisoquinolin-3-yl]methyl}butanoic acid]
1 to 100	CCC[C@H]1N(C(=O)c2ncccc2C(F)(F)F)CCC[C@@]1(Oc1csc(C(F)(F)F)c1)C(=O)N1Cc2ccc(Cl)cc2C[C@@H]1C(=O)NC1CCOCC1 [Compound A166, (3R)-6-chloro-2-{[(2R,3S)-2-propyl-1-{[3-(trifluoromethyl)pyridin-2-yl]carbonyl}-3-{[5-(trifluoromethyl)thiophen-3-yl]oxy}piperidin-3-yl]carbonyl}-N-(tetrahydro-2H-pyran-4-yl)-1,2,3,4-tetrahydroisoquinoline-3-carboxamide]
1 to 100	CCC[C@H]1N(C(=O)c2ncccc2C(F)(F)F)CCC[C@@]1(Oc1csc(C(F)(F)F)c1)C(=O)N1Cc2ccc(Cl)cc2C[C@@H]1C(=O)N1CCC(OC)CC1 [Compound A169, (3R)-6-chloro-3-[(4-methoxypiperidin-1-yl)carbonyl]-2-{[(2R,3S)-2-propyl-1-{[3-(trifluoromethyl)pyridin-2-yl]carbonyl}-3-{[5-(trifluoromethyl)thiophen-3-yl]oxy}piperidin-3-yl]carbonyl}-1,2,3,4-tetrahydroisoquinoline]
101 to 20000	CCC[C@H]1N(C(=O)c2ncccc2C(F)(F)F)CCC[C@@]1(Oc1csc(C(F)(F)F)c1)C(=O)N1Cc2sccc2CC1C(=O)O (stereo partly drawn) [Compound A171, 6-{[(2R,3S)-2-propyl-1-{[3-(trifluoromethyl)pyridin-2-yl]carbonyl}-3-{[5-(trifluoromethyl)thiophen-3-yl]oxy}piperidin-3-yl]carbonyl}-4,5,6,7-tetrahydrothieno[2,3-c]pyridine-5-carboxylic acid]
1 to 100	CCC[C@H]1N(C(=O)c2ncccc2C(F)(F)F)CCC[C@@]1(Oc1csc(C(F)(F)F)c1)C(=O)N1Cc2sc(Cl)cc2CC1C(=O)O (stereo partly drawn) [Compound A172, 2-chloro-6-{[(2R,3S)-2-propyl-1-{[3-(trifluoromethyl)pyridin-2-yl]carbonyl}-3-{[5-(trifluoromethyl)thiophen-3-yl]oxy}piperidin-3-yl]carbonyl}-4,5,6,7-tetrahydrothieno[2,3-c]pyridine-5-carboxylic acid]
1 to 100	CCC[C@H]1N(C(=O)c2ncccc2C(F)(F)F)CCC[C@@]1(Oc1csc(C(F)(F)F)c1)C(=O)N1Cc2sc(Cl)cc2CC1C(=O)O (stereo partly drawn) [Compound A174, 2-chloro-6-{[(2R,3S)-2-propyl-1-{[3-(trifluoromethyl)pyridin-2-yl]carbonyl}-3-{[5-(trifluoromethyl)thiophen-3-yl]oxy}piperidin-3-yl]carbonyl}-4,5,6,7-tetrahydrothieno[2,3-c]pyridine-5-carboxylic acid]
1 to 100	CCC[C@H]1N(C(=O)c2ncccc2C(F)(F)F)CCC[C@@]1(Oc1csc(C(F)(F)F)c1)C(=O)N1Cc2sc(Br)cc2C[C@H]1C(=O)NS(C)(=O)=O [Compound A175, (5S)-2-bromo-N-(methylsulfonyl)-6-{[(2R,3S)-2-propyl-1-{[3-(trifluoromethyl)pyridin-2-yl]carbonyl}-3-{[5-(trifluoromethyl)thiophen-3-yl]oxy}piperidin-3-yl]carbonyl}-4,5,6,7-tetrahydrothieno[2,3-c]pyridine-5-carboxamide]
101 to 20000	CCC[C@H]1N(C(=O)c2ncccc2C(F)(F)F)CCC[C@@]1(Oc1csc(C(F)(F)F)c1)C(=O)N1CCc2cc(Cl)ccc2C1CC(C(=O)O)C(C)C (stereo partly drawn) [Compound A177, 2-[(6-chloro-2-{[(2R,3S)-2-propyl-1-{[3-(trifluoromethyl)pyridin-2-yl]carbonyl}-3-{[5-(trifluoromethyl)thiophen-3-yl]oxy}piperidin-3-yl]carbonyl}-1,2,3,4-tetrahydroisoquinolin-1-yl)methyl]-3-methylbutanoic acid]
1 to 100	CCC[C@H]1N(C(=O)c2ncccc2C(F)(F)F)CCC[C@@]1(Oc1csc(C(F)(F)F)c1)C(=O)N1CCc2cc(Cl)ccc2C1CC(C(=O)O)C(C)C (stereo partly drawn) [Compound A178, 2-[(6-chloro-2-{[(2R,3S)-2-propyl-1-{[3-(trifluoromethyl)pyridin-2-yl]carbonyl}-3-{[5-(trifluoromethyl)thiophen-3-yl]oxy}piperidin-3-yl]carbonyl}-1,2,3,4-tetrahydroisoquinolin-1-yl)methyl]-3-methylbutanoic acid]
1 to 100	CCC[C@H]1N(C(=O)c2ncccc2C(F)(F)F)CCC[C@@]1(Oc1csc(C(F)(F)F)c1)C(=O)N1CCc2cc(Cl)ccc2C1CC(C(=O)O)C(C)C (stereo partly drawn) [Compound A179, 2-[(6-chloro-2-{[(2R,3S)-2-propyl-1-{[3-(trifluoromethyl)pyridin-2-yl]carbonyl}-3-{[5-(trifluoromethyl)thiophen-3-yl]oxy}piperidin-3-yl]carbonyl}-1,2,3,4-tetrahydroisoquinolin-1-yl)methyl]-3-methylbutanoic acid]
